One compound from publication PMC12379310 (Virology Journal, 2025) can be followed below.

The term pIC50 denotes −log10 of the IC50, conventionally taken in molar units.

The assay addresses human ether-α-go-go related gene (hERG) potassium channel (Kv11.1) (Homo sapiens, UniProt Q12809). Put plainly: automated whole-cell patch clamp. It is filed as cell-based. Background: The patch-clamp technique gives a direct electrical read-out from membranes.

pIC50: −log10 of the molar value.

Sequence of human ether-α-go-go related gene (hERG) potassium channel (Kv11.1) (Q12809 whole entry): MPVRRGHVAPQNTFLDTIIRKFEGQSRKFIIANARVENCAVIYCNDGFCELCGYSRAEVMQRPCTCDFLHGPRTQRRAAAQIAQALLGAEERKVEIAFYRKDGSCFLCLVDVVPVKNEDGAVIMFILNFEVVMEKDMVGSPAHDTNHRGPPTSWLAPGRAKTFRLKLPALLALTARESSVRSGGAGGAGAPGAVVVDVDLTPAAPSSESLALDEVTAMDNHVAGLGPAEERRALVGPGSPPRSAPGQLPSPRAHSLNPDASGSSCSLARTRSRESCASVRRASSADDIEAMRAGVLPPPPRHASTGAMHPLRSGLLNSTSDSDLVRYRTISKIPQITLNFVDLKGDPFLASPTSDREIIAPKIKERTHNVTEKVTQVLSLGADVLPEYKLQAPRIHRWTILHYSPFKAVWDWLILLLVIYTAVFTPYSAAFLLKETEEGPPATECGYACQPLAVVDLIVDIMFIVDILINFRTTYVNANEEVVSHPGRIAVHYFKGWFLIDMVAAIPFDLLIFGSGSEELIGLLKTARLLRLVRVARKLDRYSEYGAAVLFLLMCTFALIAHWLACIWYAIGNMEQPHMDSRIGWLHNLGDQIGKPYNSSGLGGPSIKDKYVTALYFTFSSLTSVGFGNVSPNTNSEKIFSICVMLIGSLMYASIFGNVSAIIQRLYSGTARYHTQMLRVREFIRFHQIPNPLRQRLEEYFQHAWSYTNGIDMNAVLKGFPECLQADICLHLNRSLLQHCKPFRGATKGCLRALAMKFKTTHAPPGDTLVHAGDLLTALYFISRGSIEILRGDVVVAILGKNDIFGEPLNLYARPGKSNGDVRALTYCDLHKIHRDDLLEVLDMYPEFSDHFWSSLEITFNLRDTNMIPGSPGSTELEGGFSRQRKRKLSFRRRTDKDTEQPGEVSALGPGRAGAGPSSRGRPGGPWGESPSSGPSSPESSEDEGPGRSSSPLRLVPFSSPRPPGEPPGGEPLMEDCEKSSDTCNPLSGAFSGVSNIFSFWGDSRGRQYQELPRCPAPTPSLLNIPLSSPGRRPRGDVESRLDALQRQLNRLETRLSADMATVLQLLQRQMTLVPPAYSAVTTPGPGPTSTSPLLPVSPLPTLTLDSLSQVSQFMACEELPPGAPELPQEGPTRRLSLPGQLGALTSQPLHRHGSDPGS

The compound `CCOC(=O)c1c(CSc2ccccc2)n(C)c2cc(Br)c(O)c(CN(C)C)c12` [Arbidol] showed a negative logarithm of the IC50 (pIC50) of 6.52.
